These molecules were tested against GR (Homo sapiens (Human), UniProt P04150) (assay: In Vitro GR Luciferase Reporter Assay). Conditions: CHO-K1-GR-MMTV-Luc reporter cells, antagonist assay, 10 nM Dexamethasone, 18-24 hours.
Assay type: cell-based
Text: Example 4: In Vitro GR Luciferase Reporter Assay
Cell Line: CHO-K1-GR-MMTV-Luc reporter cells
Culture Media: DMEM (with phenol red)+10% FBS
Assay Media: DMEM (without phenol red)+10% CSS
Culture CHO-K1-GR-MMTV-Luc reporter cells in 15 cm plates in Culture Media at conditions less than 90% confluence.
Prepare 200×DMSO 1:5 serial dilutions of control and test compounds in 96-well non-sterile V bottom plate in DMSO, 8 serial dilutions for each compound.
Prepare 5× Assay Media diluted compound serial dilutions in 96-well non-sterile V bottom plate: Add 97.5 uL/well of Assay Media into 96-well then add 2.5 ul of 200× concentration of compounds and mix well.
Seed cells for Antagonist Assay: […] CHO-K1-GR-MMTV-Luc reporter cells were seeded in a Corning 3707 flat clear bottom 384-well white TC plate in 20 ul of Assay Media containing 12.5 nM Dexamethasone (final concentration=10 nM).
Add compounds: 5 ul of assay media diluted compounds were added to appropriate wells and followed a quick spin (1000 rpm, 10 sec) to bring media and cells to the bottom of plate. The plates were covered with SealMate film to avoid evaporation and placed in 37° C. incubator for approximately 18-24 hours.
Read plates: Equilibrate appropriate amount of Promega OneGlo luciferase reagent to room temperature. Remove the plates from incubator and add 25 uL of OneGlo reagent/well by multiple channel pipette and read the plates with Tecan F500 luminometer within 3 minutes.
The ability of the compounds disclosed herein to inhibit GR activity was quantified and the respective IC50 value was determined. Table 3 provides the cellular IC50 values of various substituted steroidal compounds disclosed herein.

Sequence of GR (P04150 whole entry): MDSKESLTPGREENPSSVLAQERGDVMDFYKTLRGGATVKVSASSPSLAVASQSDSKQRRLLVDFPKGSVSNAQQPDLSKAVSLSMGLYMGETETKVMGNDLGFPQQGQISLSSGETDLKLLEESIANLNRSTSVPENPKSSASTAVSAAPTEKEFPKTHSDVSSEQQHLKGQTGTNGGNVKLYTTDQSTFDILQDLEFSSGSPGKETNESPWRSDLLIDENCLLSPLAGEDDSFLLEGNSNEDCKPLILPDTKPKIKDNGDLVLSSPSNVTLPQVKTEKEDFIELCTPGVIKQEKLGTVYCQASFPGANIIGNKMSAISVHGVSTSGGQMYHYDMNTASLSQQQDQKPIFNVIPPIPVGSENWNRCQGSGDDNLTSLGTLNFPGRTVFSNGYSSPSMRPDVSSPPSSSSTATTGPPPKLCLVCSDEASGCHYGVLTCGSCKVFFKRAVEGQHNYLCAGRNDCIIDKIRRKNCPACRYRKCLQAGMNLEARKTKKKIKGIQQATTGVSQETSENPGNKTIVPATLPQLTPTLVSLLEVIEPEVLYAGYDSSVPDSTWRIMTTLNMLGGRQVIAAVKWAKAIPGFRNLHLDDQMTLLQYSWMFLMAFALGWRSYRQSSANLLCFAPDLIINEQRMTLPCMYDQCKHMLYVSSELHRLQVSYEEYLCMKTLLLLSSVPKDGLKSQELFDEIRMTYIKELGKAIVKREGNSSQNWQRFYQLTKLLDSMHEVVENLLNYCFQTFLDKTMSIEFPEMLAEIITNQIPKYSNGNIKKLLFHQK

`CC(C)(C)C#C[C@]1(O)CC[C@H]2[C@@H]3CCC4=CC(=O)CCC4=C3[C@@H](c3ccc(C4CC4)cc3)C[C@@]21C` and `Cc1ccc([C@H]2C[C@@]3(C)[C@@H](CC[C@@]3(O)C#CC(C)(C)C)[C@@H]3CCC4=CC(=O)CCC4=C32)cc1` cannot be ordered by IC50: at most 100 nM for the first, at most 100 nM for the second.

`CCc1ccc([C@H]2C[C@@]3(C)[C@@H](CC[C@@]3(O)C#CC(C)(C)C)[C@@H]3CCC4=CC(=O)CCC4=C32)cc1` and `CC(C)(C)C#C[C@]1(O)CC[C@H]2[C@@H]3CCC4=CC(=O)CCC4=C3[C@@H](c3ccc(N)cc3)C[C@@]21C` cannot be ordered by IC50: at most 100 nM for the first, over 100 nM for the second.

`CC(C)N(C)c1ccc([C@H]2C[C@@]3(C)[C@@H](CC[C@@]3(O)C#CC(C)(C)C)[C@@H]3CCC4=CC(=O)CCC4=C32)cc1` and `CCN(c1ccc([C@H]2C[C@@]3(C)[C@@H](CC[C@@]3(O)C#CC(C)(C)C)[C@@H]3CCC4=CC(=O)CCC4=C32)cc1)C(C)C` cannot be ordered by IC50: at most 100 nM for the first, over 100 nM for the second.

`CCc1ccc([C@H]2C[C@@]3(C)[C@@H](CC[C@@]3(O)C#Cc3ccccc3)[C@@H]3CCC4=CC(=O)CCC4=C32)cc1` and `CN(C)c1ccc([C@H]2C[C@@]3(C)[C@@H](CC[C@@]3(O)C#Cc3ccc(C#N)cc3)[C@@H]3CCC4=CC(=O)CCC4=C32)cc1` cannot be ordered by IC50: at most 100 nM for the first, at most 100 nM for the second.

`COc1ccc([C@H]2C[C@@]3(C)[C@@H](CC[C@@]3(O)C#CC(C)(C)C)[C@@H]3CCC4=CC(=O)CCC4=C32)cc1` and `CC(C)Oc1ccc([C@H]2C[C@@]3(C)[C@@H](CC[C@@]3(O)C#CC(C)(C)C)[C@@H]3CCC4=CC(=O)CCC4=C32)cc1` cannot be ordered by IC50: at most 100 nM for the first, at most 100 nM for the second.

`CC(C)(C)C#C[C@]1(O)CC[C@H]2[C@@H]3CCC4=CC(=O)CCC4=C3[C@@H](c3ccc(NCC4CC4)cc3)C[C@@]21C` and `CN(CC1CC1)c1ccc([C@H]2C[C@@]3(C)[C@@H](CC[C@@]3(O)C#CC(C)(C)C)[C@@H]3CCC4=CC(=O)CCC4=C32)cc1` cannot be ordered by IC50: at most 100 nM for the first, over 100 nM for the second.

`CN(C)c1ccc([C@H]2C[C@@]3(C)[C@@H](CC[C@@]3(O)C#CCO)[C@@H]3CCC4=CC(=O)CCC4=C32)cc1` and `CN(C)c1ccc([C@H]2C[C@@]3(C)[C@@H](CC[C@@]3(O)C#Cc3ccc(C(C)(C)C)cc3)[C@@H]3CCC4=CC(=O)CCC4=C32)cc1` cannot be ordered by IC50: over 100 nM for the first, over 100 nM for the second.

`CC(C)Oc1cccc([C@H]2C[C@@]3(C)[C@@H](CC[C@@]3(O)C#CC(F)(F)F)[C@@H]3CCC4=CC(=O)CCC4=C32)c1` and `Cc1ccc([C@H]2C[C@@]3(C)[C@@H](CC[C@@]3(O)C#CC(F)(F)F)[C@@H]3CCC4=CC(=O)CCC4=C32)cc1F` cannot be ordered by IC50: over 100 nM for the first, over 100 nM for the second.

`COc1ccc([C@H]2C[C@@]3(C)[C@@H](CC[C@@]3(O)C#CC(C)C)[C@@H]3CCC4=CC(=O)CCC4=C32)cc1F` and `Cc1ccc([C@H]2C[C@@]3(C)[C@@H](CC[C@@]3(O)C#CC(C)C)[C@@H]3CCC4=CC(=O)CCC4=C32)cc1F` cannot be ordered by IC50: at most 100 nM for the first, at most 100 nM for the second.

`CC(C)C#C[C@]1(O)CC[C@H]2[C@@H]3CCC4=CC(=O)CCC4=C3[C@@H](c3ccc(N(C)C)c(F)c3)C[C@@]21C` and `CC(C)C#C[C@]1(O)CC[C@H]2[C@@H]3CCC4=CC(=O)CCC4=C3[C@@H](c3cc(F)c(N(C)C)cc3F)C[C@@]21C` cannot be ordered by IC50: at most 100 nM for the first, at most 100 nM for the second.

`Cc1ccc([C@H]2C[C@@]3(C)[C@@H](CC[C@@]3(O)C#CC3CC3)[C@@H]3CCC4=CC(=O)CCC4=C32)cc1F` and `Cc1c(F)cc([C@H]2C[C@@]3(C)[C@@H](CC[C@@]3(O)C#CC3CC3)[C@@H]3CCC4=CC(=O)CCC4=C32)cc1F` cannot be ordered by IC50: at most 100 nM for the first, at most 100 nM for the second.

`Cc1ccc([C@H]2C[C@@]3(C)[C@@H](CC[C@@]3(O)C#CC(C)(C)C)[C@@H]3CCC4=CC(=O)CCC4=C32)cc1C` and `Cc1ccc([C@H]2C[C@@]3(C)[C@@H](CC[C@@]3(O)C#CC(C)(C)C)[C@@H]3CCC4=CC(=O)CCC4=C32)cc1F` cannot be ordered by IC50: at most 100 nM for the first, at most 100 nM for the second.

`CN(C)c1cc([C@H]2C[C@@]3(C)[C@@H](CC[C@@]3(O)C#CC(F)(F)F)[C@@H]3CCC4=CC(=O)CCC4=C32)ccc1Cl` and `CN(C)c1c(F)cc([C@H]2C[C@@]3(C)[C@@H](CC[C@@]3(O)C#CC(F)(F)F)[C@@H]3CCC4=CC(=O)CCC4=C32)cc1F` cannot be ordered by IC50: over 100 nM for the first, over 100 nM for the second.

`COc1cc([C@H]2C[C@@]3(C)[C@@H](CC[C@@]3(O)C#CC(C)(C)C)[C@@H]3CCC4=CC(=O)CCC4=C32)ccc1N(C)C` and `CN(C)c1ccc([C@H]2C[C@@]3(C)[C@@H](CC[C@@]3(O)C#CC(C)(C)C)[C@@H]3CCC4=CC(=O)CCC4=C32)c(F)c1F` cannot be ordered by IC50: over 100 nM for the first, at most 100 nM for the second.

`CCN(C)c1cc(F)c([C@H]2C[C@@]3(C)[C@@H](CC[C@@]3(O)C#CC3CC3)[C@@H]3CCC4=CC(=O)CCC4=C32)c(F)c1` and `CCN(C)c1cc(F)c([C@H]2C[C@@]3(C)[C@@H](CC[C@@]3(O)C#CC(C)C)[C@@H]3CCC4=CC(=O)CCC4=C32)c(F)c1` cannot be ordered by IC50: at most 100 nM for the first, at most 100 nM for the second.

`CN(C)c1cc(F)c([C@H]2C[C@@]3(C)[C@@H](CC[C@@]3(O)C#CC(F)(F)F)[C@@H]3CCC4=CC(=O)CCC4=C32)c(F)c1` and `CN(C)c1cc(F)c([C@H]2C[C@@]3(C)[C@@H](CC[C@@]3(O)C#CC(C)(C)C)[C@@H]3CCC4=CC(=O)CCC4=C32)c(F)c1` cannot be ordered by IC50: at most 100 nM for the first, at most 100 nM for the second.

`CC(C)C#C[C@]1(O)CC[C@H]2[C@@H]3CCC4=CC(=O)CCC4=C3[C@@H](c3c(F)cc(N(C)C)cc3F)C[C@@]21C` and `CCN(CC)c1cc(F)c([C@H]2C[C@@]3(C)[C@@H](CC[C@@]3(O)C#CC(C)C)[C@@H]3CCC4=CC(=O)CCC4=C32)c(F)c1` cannot be ordered by IC50: at most 100 nM for the first, at most 100 nM for the second.

`CCc1cc(F)c([C@H]2C[C@@]3(C)[C@@H](CC[C@@]3(O)C#CC(C)C)[C@@H]3CCC4=CC(=O)CCC4=C32)c(F)c1` and `Cc1c(F)cc([C@H]2C[C@@]3(C)[C@@H](CC[C@@]3(O)C#CC(C)C)[C@@H]3CCC4=CC(=O)CCC4=C32)cc1F` cannot be ordered by IC50: at most 100 nM for the first, at most 100 nM for the second.

`CC(C)(C)C#C[C@]1(O)CC[C@H]2[C@@H]3CCC4=CC(=O)CCC4=C3[C@@H](c3cc(F)c(-c4cncnc4)cc3F)C[C@@]21C` and `CC(C)(C)C#C[C@]1(O)CC[C@H]2[C@@H]3CCC4=CC(=O)CCC4=C3[C@@H](c3cc(F)c(-c4ccncc4)cc3F)C[C@@]21C` cannot be ordered by IC50: at most 100 nM for the first, at most 100 nM for the second.

`CN(C)c1c(F)cc([C@H]2C[C@@]3(C)[C@@H](CC[C@@]3(O)C#CC3CC3)[C@@H]3CCC4=CC(=O)CCC4=C32)cc1F` and `CN(C)c1cc(F)c([C@H]2C[C@@]3(C)[C@@H](CC[C@@]3(O)C#CC3CC3)[C@@H]3CCC4=CC(=O)CCC4=C32)cc1F` cannot be ordered by IC50: at most 100 nM for the first, at most 100 nM for the second.

`CN(C)c1cc(F)c([C@H]2C[C@@]3(C)[C@@H](CC[C@@]3(O)C#Cc3ccccc3)[C@@H]3CCC4=CC(=O)CCC4=C32)c(F)c1` and `Cc1c(F)cc([C@H]2C[C@@]3(C)[C@@H](CC[C@@]3(O)C#Cc3ccc(N(C)C)cc3)[C@@H]3CCC4=CC(=O)CCC4=C32)cc1F` cannot be ordered by IC50: at most 100 nM for the first, over 100 nM for the second.

`CC(C)C#C[C@]1(O)CC[C@H]2[C@@H]3CCC4=CC(=O)CCC4=C3[C@@H](c3ccc(N(C)C)c(F)c3F)C[C@@]21C` and `CN(C)c1c(F)cc([C@H]2C[C@@]3(C)[C@@H](CC[C@@]3(O)C#CC(C)(C)C)[C@@H]3CCC4=CC(=O)CCC4=C32)cc1F` cannot be ordered by IC50: at most 100 nM for the first, at most 100 nM for the second.

`CC(C)C#C[C@]1(O)CC[C@H]2[C@@H]3CCC4=CC(=O)CCC4=C3[C@@H](c3c(F)cc(N4CCCC4)cc3F)C[C@@]21C` and `Cc1c(F)cc([C@H]2C[C@@]3(C)[C@@H](CC[C@@]3(O)C#CC(C)(C)C)[C@@H]3CCC4=CC(=O)CCC4=C32)cc1F` cannot be ordered by IC50: at most 100 nM for the first, over 100 nM for the second.

`Cc1ccc(-c2cc(F)c([C@H]3C[C@@]4(C)[C@@H](CC[C@@]4(O)C#CC(C)(C)C)[C@@H]4CCC5=CC(=O)CCC5=C43)cc2F)cn1` and `CC(C)(C)C#C[C@]1(O)CC[C@H]2[C@@H]3CCC4=CC(=O)CCC4=C3[C@@H](c3ccc(C(C)(C)CO)cc3)C[C@@]21C` cannot be ordered by IC50: over 100 nM for the first, at most 100 nM for the second.

`Cc1c(F)cc([C@H]2C[C@@]3(C)[C@@H](CC[C@@]3(O)C#CC(F)(F)F)[C@@H]3CCC4=CC(=O)CCC4=C32)cc1F` and `Cc1c(F)cc([C@H]2C[C@@]3(C)[C@@H](CC[C@@]3(O)C#Cc3ccccn3)[C@@H]3CCC4=CC(=O)CCC4=C32)cc1F` cannot be ordered by IC50: over 100 nM for the first, over 100 nM for the second.

`CC(C)N(C)c1ccc([C@H]2C[C@@]3(C)[C@@H](CC[C@@]3(O)C#CC3(C)COC3)[C@@H]3CCC4=CC(=O)CCC4=C32)cc1` and `CC(C)N(C)c1ccc([C@H]2C[C@@]3(C)[C@@H](CC[C@@]3(O)C#Cc3ccc(S(C)(=O)=O)cc3)[C@@H]3CCC4=CC(=O)CCC4=C32)cc1` cannot be ordered by IC50: at most 100 nM for the first, at most 100 nM for the second.

`COC(C)(C)C#C[C@]1(O)CC[C@H]2[C@@H]3CCC4=CC(=O)CCC4=C3[C@@H](c3ccc(C(C)(C)C)cc3)C[C@@]21C` and `C[C@H]1CCCN1c1ccc([C@H]2C[C@@]3(C)[C@@H](CC[C@@]3(O)C#CC(C)(C)C)[C@@H]3CCC4=CC(=O)CCC4=C32)cc1` cannot be ordered by IC50: at most 100 nM for the first, at most 100 nM for the second.

— patent US11124537B2, “Inhibitors of glucocorticoid receptor” (ORIC Pharmaceuticals, Inc., priority 2015, dated 2021)
